The record followed here is patent US12202844B2, “MAP4K1 inhibitors” (Blueprint Medicines Corporation, priority 2021, dated 2025).

One test has as its target T1, MAP4K1 (HPK1) (Homo sapiens, UniProt Q92918).
T1 construct: purchased Invitrogen
The test can be described thus: Inhibition of MAP4K1 biochemical enzymatic activity (EZReader 2 electrophoretic mobility shift). The settings on record: HPK1 (Invitrogen), S6K2tide 1.5 μM, 120 min; ATP 26 μM or 1000 μM (not given). From the text:
MAP4K1 (HPK1) and relevant off-target enzymatic activity was monitored using the Perkin Elmer electrophoretic mobility shift technology platform—the EZReader 2. […] Within the linear, steady-state phase of the kinase enzymatic reaction, the mixed pool of phosphorylated (product) and non-phosphorylated (substrate) peptides was passed through the microfluidic system of the PerkinElmer EZ Reader 2, under an applied electric potential difference. The presence of the phosphate group on the product peptide provided a difference in mass and charge between that of the substrate peptide, resulting in a separation of the substrate and product pools in the sample (Perrin et al. 2010). As the product and substrate peptide mixture passes the lasers within the instrument, these pools are detected (λex=488 nm, λem=568 nm) and resolved as separate peaks. The ratio between these peaks reflects the activity of the compound at that concentration, in that well, under those conditions.
Inhibitors were dissolved in 100% DMSO at a stock concentration of 10 mM. A 100×, 10-point, 4-fold serial dilution of each inhibitor was created in 100% DMSO either manually or on a Hamilton STAR liquid handler, starting at a relevant concentration, usually 1 mM. A volume of 0.130 μL of each concentration was transferred to the relevant wells of a 384-well plate (Greiner 781 201) in duplicate using a TTPLabtech Mosquito nano-litre dispenser. Using a Multidrop Combi, the remaining constituents of the kinase reaction were added to the 130 nL of dosed compound as follows (see table below for final reaction details):
Enzyme activity assays at the ^APPKM for ATP or 1 mM ATP: In each well of a 384-well plate, 0.1-15 nM of untreated enzyme was incubated in a total of 13 μL of buffer (100 mM HEPES pH 7.5, 0.015% Brij 35, 10 mM MgCl2, 1 mM DTT) with 1.5 μM fluorescent peptid and 20-1000 μM ATP, at 25° C., for 60-180 minutes in the presence or absence of a dosed concentration series of compound (1% DMSO final concentration). The kinase reactions were stopped by the addition of 70 μl of Stop buffer (100 mM HEPES pH 7.5, 0.015% Brij 35, 35 mM EDTA and 0.2% of Coating Reagent 3 (Caliper Lifesciences)). The plates were read on a Caliper EZReader 2 as described above.

For test [1], the system named is Primary T Cell (expanded CD3+ T cells). Description: T cell enhancement of cytokines: IL2 measurement (HTRF) in stimulated expanded CD3+ T cells. To be noted: Homo sapiens, T-cell, 24 h, plate-bound anti-CD3 and soluble anti-CD28, 24 h, IL2 by HTRF; read-out: IL-2 Primary T Cell EC50. The format is cell-based, human. As to the method: T cells are isolated from whole blood of healthy donors by immunomagnetic negative selection following manufacture's protocol (StemCell Technologies, human T cell isolation kit). Purity of isolated cells is assessed by flow cytometry and yields 95-98% CD3^+ T cells. For expansion of T cells, 1×10^6 cells/well are plated in serum free cell expansion media (ThermoFisher) containing 30 U of recombinant human IL2 (R&D) and stimulated with 25 ul of CD3/CD28 beads (Invitrogen) in 24 well plates for 3-4 days. T cells are then expanded in 175 cm flasks and maintained at a cell density of 1 to 2.5×10^6 cells/ml days by addition of ⅔ of fresh media every 2-3 days. After 10-14 days, cells are frozen in BamBanker freezing media (Thermo) and stored in liquid nitrogen.
For IL2 measurement, expanded CD3^+ T cells are dispensed at 100K cells/well (cultured in X-VIVO 10 Serum-free media) and are stimulated with plate-bound anti-CD3 and soluble anti-CD28 in the presence of vehicle or compound of the disclosure at various concentrations for 24 h. As outlined in the manufacturer's protocol (Cisbio), 16 μL of conditioned media is transferred to a white 384-well low volume plate. Following a 24 h incubation with the anti-IL2 antibodies, the homogenous time resolved fluorescence (HTRF) is measured.

T1 sequence (Q92918 whole entry): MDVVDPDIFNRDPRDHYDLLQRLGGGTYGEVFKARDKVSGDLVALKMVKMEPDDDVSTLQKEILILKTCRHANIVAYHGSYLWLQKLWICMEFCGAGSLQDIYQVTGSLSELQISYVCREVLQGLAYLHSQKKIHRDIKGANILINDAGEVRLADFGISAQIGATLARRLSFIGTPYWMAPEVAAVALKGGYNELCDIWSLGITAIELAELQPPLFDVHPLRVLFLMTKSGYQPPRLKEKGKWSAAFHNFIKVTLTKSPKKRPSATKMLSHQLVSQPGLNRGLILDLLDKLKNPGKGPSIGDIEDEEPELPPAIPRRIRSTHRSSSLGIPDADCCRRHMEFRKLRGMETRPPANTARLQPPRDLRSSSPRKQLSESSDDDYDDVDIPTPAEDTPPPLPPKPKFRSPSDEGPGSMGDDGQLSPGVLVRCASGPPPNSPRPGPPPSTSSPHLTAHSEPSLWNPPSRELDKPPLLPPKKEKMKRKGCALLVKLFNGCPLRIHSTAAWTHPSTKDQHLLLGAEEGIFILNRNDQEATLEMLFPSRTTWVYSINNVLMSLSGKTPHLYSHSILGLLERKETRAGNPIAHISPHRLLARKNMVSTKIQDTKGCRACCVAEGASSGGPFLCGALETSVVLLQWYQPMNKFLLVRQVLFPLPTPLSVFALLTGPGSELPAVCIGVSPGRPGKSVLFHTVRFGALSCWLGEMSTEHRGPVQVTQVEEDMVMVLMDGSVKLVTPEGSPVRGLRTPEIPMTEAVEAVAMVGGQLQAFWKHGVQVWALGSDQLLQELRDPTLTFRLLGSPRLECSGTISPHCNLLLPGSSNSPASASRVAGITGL

As for `C[C@@H]1COC(=O)c2ccc(Nc3cc4c(C(C)(C)N)cnc(O[C@H]5C[C@@H](S(C)(=O)=O)C5)c4cn3)nc21` (single isomer, unassigned) [Compound 6], the IC50 at MAP4K1 (HPK1) is 0.18 nM. Besides, the EC50 in test [1] was 7 nM.
In the same order, the values of `CC[C@@](C)(N)c1cnc(O[C@H](C)CCS(C)(=O)=O)c2cnc(Nc3ccc4c(n3)[C@H](C)COC4=O)cc12` (single isomer, unassigned) [Compound 16] are 0.31 nM and 44 nM.
`C[C@@H]1OC(=O)c2ccc(Nc3cc4c(C(C)(C)N)cnc(O[C@@H](C)CCS(C)(=O)=O)c4cn3)nc2[C@H]1C` (single isomer, unassigned) [Compound 18]: the concentration for half-maximal inhibition (IC50) on MAP4K1 (HPK1) is 0.33 nM. For the same molecule, in test [1], the EC50 is 43 nM.
In the same order, the values of `C[C@@H]1COC(=O)c2ccc(Nc3cc4c(C(C)(C)N)cnc(O[C@H]5C[C@@H](S(=O)(=O)C6CC6)C5)c4cn3)nc21` (single isomer, unassigned) [Compound 26] are 0.26 nM and 17 nM.
For `C[C@@H]1OC(=O)c2ccc(Nc3cc4c(C(C)(C)N)cnc(OC5CS(=O)(=O)C5)c4cn3)nc2[C@H]1C` [Compound 1], the IC50 on MAP4K1 (HPK1) was 0.26 nM.
Turning to `CC(C)(N)c1cnc(O[C@H]2C[C@@H](S(C)(=O)=O)C2)c2cnc(Nc3ccc4c(n3)C(C)(C)OC4=O)cc12` [Compound 4], on MAP4K1 (HPK1), the IC50 was determined as 1.85 nM.
Consider `C[C@@H]1c2nc(Nc3cc4c(C(C)(C)N)cnc(OC5(C)CS(=O)(=O)C5)c4cn3)ccc2C(=O)OC1(C)C` [Compound 10], for which the IC50 on MAP4K1 (HPK1) was 0.12 nM.
Take `C[C@@H]1c2nc(Nc3cc4c(C(C)(C)N)cnc(OCC5CS(=O)(=O)C5)c4cn3)ccc2C(=O)OC1(C)C` [Compound 12]: on MAP4K1 (HPK1), the IC50 worked out at 0.56 nM.
The same measure, in the same setting: under `C[C@@H]1OC(=O)c2ccc(Nc3cc4c(C(C)(C)N)cnc(O[C@H]5C[C@H](S(C)(=O)=O)C5)c4cn3)nc2[C@H]1C` [Compound 14] stands 0.28 nM; under `C[C@@H]1c2nc(Nc3cc4c(C(C)(C)N)cnc(OCCCS(C)(=O)=O)c4cn3)ccc2C(=O)OC1(C)C` [Compound 17], 0.15 nM; under `CC[C@@](C)(N)c1cnc(OCCCS(C)(=O)=O)c2cnc(Nc3ccc4c(n3)[C@@H](C)[C@H](C)OC4=O)cc12` [Compound 20], 0.13 nM.
The same measure, in the same setting: under `CC[C@@](C)(N)c1cnc(OCCCS(C)(=O)=O)c2cnc(Nc3ccc4c(n3)C(C)(C)COC4=O)cc12` [Compound 22] stands 0.3 nM; under `CC[C@@](C)(N)c1cnc(OCCCS(C)(=O)=O)c2cnc(Nc3ccc4c(n3)CC(C)(C)OC4=O)cc12` [Compound 23], 0.3 nM.
Still for that read-out and setting: the figure for `CC[C@@](C)(N)c1cnc(O[C@H]2C[C@@H](S(C)(=O)=O)C2)c2cnc(Nc3ccc4c(n3)CC(C)(C)OC4=O)cc12` [Compound 32] is 0.18 nM; for `CC[C@@](C)(N)c1cnc(O[C@H]2C[C@@H](S(C)(=O)=O)C2)c2cnc(Nc3ccc4c(n3)C(C)(C)COC4=O)cc12` [Compound 33] it is 0.21 nM; for `CC[C@@](C)(N)c1cnc(OCCCS(C)(=O)=O)c2cnc(Nc3ccc4c(n3)C3(CC3)C(C)(C)OC4=O)cc12` [Compound 44] it is 0.19 nM.
With `CC[C@@](C)(N)c1cnc(O[C@H](C)CCS(C)(=O)=O)c2cnc(Nc3ccc4c(n3)CC(C)(C)OC4=O)cc12` [Compound 49], the IC50 on MAP4K1 (HPK1) turned out to be 0.31 nM.
Same read-out and setting: the figure for `CC[C@@](C)(N)c1cnc(O[C@H](C)CCS(C)(=O)=O)c2cnc(Nc3ccc4c(n3)C(C)(C)COC4=O)cc12` [Compound 50] is 0.56 nM.
On the same count and under the same terms, under `COC[C@@](C)(N)c1cnc(OCCCS(C)(=O)=O)c2cnc(Nc3ccc4c(n3)[C@@H](C)[C@H](C)OC4=O)cc12` [Compound 57] stands 0.53 nM; under `CC(C)(N)c1cnc(O[C@H]2C[C@@H](S(C)(=O)=O)C2)c2cnc(Nc3ccc4c(n3)C3(CC3)C(C)(C)OC4=O)cc12` [Compound 59], 0.15 nM.
Still for that read-out and setting: under `C[C@@H]1OC(=O)c2ccc(Nc3cc4c(C(C)(C)N)cnc(O[C@H]5C[C@@H](S(=O)(=O)C6CC6)C5)c4cn3)nc2[C@H]1C` [Compound 61] stands 0.15 nM; under `CC[C@@](C)(N)c1cnc(O[C@H]2C[C@H](CS(C)(=O)=O)C2)c2cnc(Nc3ccc4c(n3)[C@@H](C)[C@H](C)OC4=O)cc12` [Compound 72], 0.1 nM.
Take `CC[C@@](C)(N)c1cnc(O[C@H]2C[C@@H](CS(C)(=O)=O)C2)c2cnc(Nc3ccc4c(n3)[C@@H](C)[C@H](C)OC4=O)cc12` [Compound 73]: on MAP4K1 (HPK1), the IC50 came to 0.24 nM.
The same measure, in the same setting: the figure for `C[C@@H]1OC(=O)c2ccc(Nc3cc4c(C(C)(C)N)cnc(O[C@H]5C[C@H](S(=O)(=O)N(C)C)C5)c4cn3)nc2[C@H]1C` [Compound 82] is 0.35 nM.
Still for that read-out and setting: under `CCS(=O)(=O)[C@H](C)C[C@@H](C)Oc1ncc(C(C)(C)N)c2cc(Nc3ccc4c(n3)[C@@H](C)[C@H](C)OC4=O)ncc12` [Compound 89] stands 0.24 nM.
In the case of `CC[C@@](C)(N)c1cnc(O[C@H]2C[C@@H](S(C)(=O)=O)C2)c2cnc(Nc3ccc4c(n3)C3(CC3)C(C)(C)OC4=O)cc12` [Compound 100], at MAP4K1 (HPK1), the IC50 was 0.15 nM.
On the same count and under the same terms, the figure for `C[C@H](C[C@@H](C)S(C)(=O)=O)Oc1ncc(C(C)(C)N)c2cc(Nc3ccc4c(n3)C3(CC3)C(C)(C)OC4=O)ncc12` [Compound 103] is 0.55 nM.
For `CC[C@@](C)(N)c1cnc(O[C@H]2C[C@H](CS(C)(=O)=O)C2)c2cnc(Nc3ccc4c(n3)[C@@H](C)C(C)(C)OC4=O)cc12` [Compound 113], the IC50 on MAP4K1 (HPK1) is 0.14 nM.
On the same count and under the same terms, under `CC[C@@](C)(N)c1cnc(O[C@H]2C[C@@H](CS(C)(=O)=O)C2)c2cnc(Nc3ccc4c(n3)[C@@H](C)C(C)(C)OC4=O)cc12` [Compound 114] stands 0.17 nM; under `CC(C)S(=O)(=O)[C@H]1C[C@@H](Oc2ncc(C(C)(C)N)c3cc(Nc4ccc5c(n4)[C@@H](C)C(C)(C)OC5=O)ncc23)C1` [Compound 116], 0.09 nM.
On the same count and under the same terms, under `C[C@@H]1c2nc(Nc3cc4c(C(C)(C)N)cnc(O[C@H]5C[C@H](S(=O)(=O)N(C)C)C5)c4cn3)ccc2C(=O)OC1(C)C` [Compound 119] stands 0.22 nM; under `COC[C@@](C)(N)c1cnc(O[C@H]2C[C@H](CS(C)(=O)=O)C2)c2cnc(Nc3ccc4c(n3)[C@@H](C)[C@H](C)OC4=O)cc12` [Compound 120], 0.52 nM.
As to `COC[C@@](C)(N)c1cnc(O[C@H]2C[C@@H](CS(C)(=O)=O)C2)c2cnc(Nc3ccc4c(n3)[C@@H](C)[C@H](C)OC4=O)cc12` [Compound 121], the IC50 at MAP4K1 (HPK1) came to 0.59 nM.
In the case of `COC[C@@](C)(N)c1cnc(O[C@H](C)C[C@@H](C)S(C)(=O)=O)c2cnc(Nc3ccc4c(n3)[C@@H](C)[C@H](C)OC4=O)cc12` [Compound 134], the IC50 on MAP4K1 (HPK1) amounted to 0.48 nM.
Consider `COC[C@@](C)(N)c1cnc(OCCCS(C)(=O)=O)c2cnc(Nc3ccc4c(n3)[C@@H](C)C(C)(C)OC4=O)cc12` [Compound 135], for which, on MAP4K1 (HPK1), the IC50 was 0.45 nM.
The same measure, in the same setting: under `CC[C@@](C)(N)c1cnc(O[C@@H](C)CCS(C)(=O)=O)c2cnc(Nc3ccc4c(n3)C3(CC3)C(C)(C)OC4=O)cc12` [Compound 146] stands 1.41 nM.
Consider `COC[C@@](C)(N)c1cnc(O[C@H](C)C[C@@H](C)S(C)(=O)=O)c2cnc(Nc3ccc4c(n3)C3(CC3)C(C)(C)OC4=O)cc12` [Compound 164], for which the IC50 on MAP4K1 (HPK1) turned out to be 1.48 nM.
The same measure, in the same setting: under `CC[C@@](C)(N)c1cnc(O[C@@H](C)CCS(C)(=O)=O)c2cnc(Nc3ccc4c(n3)C(C)(C)[C@@H](C)OC4=O)cc12` [Compound 177] stands 1.1 nM.
Still for that read-out and setting: under `CC[C@@](C)(N)c1cnc(O[C@H](C)CCS(C)(=O)=O)c2cnc(Nc3ccc4c(n3)C(C)(C)[C@@H](C)OC4=O)cc12` [Compound 178] stands 0.55 nM.
